Data on eleven compounds can be found in patent US8076285B2, “Lysobactin amides” (Aicuris GmbH & Co. KG, priority 2006, dated 2011).

In brackets after ≈: the same amount, converted by molar mass. Like-named read-outs stand apart in the source and are kept apart here. *1 amine or outer side, *2 acyl side, *3 side chain or, on linkers, in order; H or OH if unused. Where a SMILES comes first, the peptide text is derived from it. Bridges are numbered along the chain shown (N, C = ends). [ ]: non-standard residue; d: D form. ξ: configuration not given here. Phe(3R-OH) = O=C([C@@H](N[*:1])[C@H](O[*:3])c1ccccc1)[*:2]; Phe(βR-NH) = O=C([C@@H](N[*:1])[C@H](N[*:3])c1ccccc1)[*:2]; Asn(3S-OH) = NC(=O)[C@@H](O)[C@H](N)C(=O)O; Leu(3R-OH) = CC(C)[C@@H](O)[C@H](N)C(=O)O; X1 = NC(=O)[C@@H](O)C(N[*:1])C(=O)[*:2]; dAla(TMS) = C[Si](C)(C)C[C@@H](N)C(=O)O; d(tBuAla) = CC(C)(C)C[C@@H](N)C(=O)O; tBuAla = CC(C)(C)C[C@H](N)C(=O)O; 3Pal = N[C@@H](Cc1cccnc1)C(=O)O; aThr = C[C@H](O)[C@H](N)C(=O)O; ξIle = CC[C@H](C)C(N)C(=O)O; Nle = CCCC[C@H](N)C(=O)O; ξS = NC(CO)C(=O)O; ξA = CC(N)C(=O)O

Data set [1] relates to Staphylococcus aureus 133. Format: cell-based. On the procedure:
(§1) Determination of the Minimum Inhibitory Concentration (MIC):
(§2) The MIC is determined in the liquid dilution test in accordance with the NCCLS guidelines. Overnight cultures of Staphylococcus aureus 133, Enterococcus faecalis 27159, E. faecium 4147 and Streptococcus pneumoniae G9a are incubated with the described test substances in a 1:2 dilution series. The MIC determination is carried out with a cell count of 10^5 microbes per ml in Isosensitest medium (Difco, Irvine/USA), with the exception of S. pneumoniae which is tested in BHI broth (Difco, Irvine/USA) with 10% bovine serum with a cell count of 10^6 microbes per ml. The cultures are incubated at 37° C. for 18-24 hours, S. pneumoniae in the presence of 10% CO2.
(§3) The MIC is defined as the lowest concentration of each substance at which no visible bacterial growth occurs any longer. The MIC values are reported in μg/ml.

Data set [2] concerns Streptococcus pneumoniae G9a. The format is cell-based. On the procedure:
as §1, §2, §3

For data set [3], the system named is Enterococcus faecalis 27159. The format is cell-based. As for the experimental part:
as §1, §2, §3

For data set [4] the following is noted: amide bond; 28-membered ring; HATU/NMM; DMF; 0.0 °C.
The nature of data set [5]: Chemical stability in alkaline aqueous solution (buffer pH 7.8, HPLC). Format: physicochemical. The conditions noted are these: aqueous neutral to basic medium (pH>7). On the procedure: Determination of the Chemical Stability in Stability Alkaline Aqueous Solution:
0.3 mg of the test substance are dissolved in a mixture of 0.25 ml of acetonitrile, 0.25 ml of DMSO and 0.5 ml of buffer of pH 7.8 (consisting of 111 mg (1 mmol) of calcium chloride, 7.91 g (100 mmol) of ammonium bicarbonate, 100 ml of acetonitrile ad 1000 ml) and left to stand at room temperature. A 5 μl aliquot is taken from the solution once an hour and analyzed by HPLC (method 57). The concentration of the test compound at time 0 h, indicated by the UV absorption (1E), is set equal to 100%, and the decrease over time is observed. At the same time, the increase in the ring-opened degradation product is observed.

For data set [6] the following is noted: amide bond, 28-membered ring, HATU/NMM, DMF.
Where [7] appears, read: Isosensitest medium, 10^5 microbes per ml, 37° C., 18-24 hours.

In the case of `CC[C@H](C)[C@@H]1NC(=O)[C@@H](CCCNC(=N)N)NC(=O)[C@H](CC(C)C)NC(=O)[C@H]([C@H](O)C(C)C)NC(=O)[C@@H](NC(=O)[C@H](CC(C)(C)C)NC(=O)[C@H](N)CC(C)(C)C)[C@@H](c2cccnc2)NC(=O)C(CO)NC(=O)C([C@H](O)C(N)=O)NC(=O)CNC(=O)[C@H]([C@H](C)O)NC1=O` (stereo partly drawn) [Example 44, [3-tert-Butyl-D-alanyl]-[3-tert-butyl-L-alanyl]-[(3R)-3-amino-3-(pyridin-3-yl)-L-alanyl]-[(3R)-3-hydroxy-L-leucyl]-L-leucyl-D-arginyl-L-isoleucyl-L-allothreonyl-glycyl-[(3S)-3-hydroxy-L-asparaginyl]-L-serine C^1.11-N^3.3-lactam tristrifluoroacetate], in data set [1] (133), the “MIC S. aureus 133” value was 0.25 µg/mL (≈ 0.192 µM). For the same compound, the “MIC S. pneumoniae G9a” value in data set [2] (G9a) is 0.125 µg/mL (≈ 0.0958 µM). Also, the “MIC E. faecalis ICB 27159” value in data set [3] (27159) is 0.5 µg/mL (≈ 0.383 µM).

For the compound `CC[C@H](C)[C@@H]1NC(=O)[C@@H](CCCNC(=N)N)NC(=O)[C@H](CC(C)C)NC(=O)[C@H]([C@H](O)C(C)C)NC(=O)[C@@H](NC(=O)[C@H](CC(C)(C)C)NC(=O)[C@H](N)CC(C)(C)C)[C@@H](c2ccccc2)NC(=O)[C@H](CO)NC(=O)C([C@H](O)C(N)=O)NC(=O)CNC(=O)[C@H](CO)NC1=O` (stereo partly drawn) [Example 14, [3-tert-Butyl-D-alanyl]-[3-tert-butyl-L-alanyl]-[(3R)-3-amino-L-phenylalanyl]-[(3R)-3-hydroxy-L-leucyl]-L-leucyl-D-arginyl-L-isoleucyl-L-seryl-glycyl-[(3S)-3-hydroxy-L-asparaginyl]-L-serine C^1.11-N^3.3-lactam bistrifluoroacetate] (H-[d(tBuAla)][tBuAla][Phe(βR-NH)][Leu(3R-OH)]L[dR]ISG[X1]S; lactam 3-C), the “MIC S. aureus 133” value in data set [1] (133) was determined as 0.25 µg/mL (≈ 0.194 µM). Moreover, the “MIC S. pneumoniae G9a” value in data set [2] (G9a) was 0.125 µg/mL (≈ 0.0969 µM). Further, the “MIC E. faecalis ICB 27159” value in data set [3] (27159) turned out to be 0.5 µg/mL (≈ 0.388 µM).

Regarding “[(3R)-N^2-(Benzyloxycarbonyl)-3-amino-L-phenylalanyl]-[(3R)-3-hydroxy-L-leucyl]-L-leucyl-D-arginyl-L-isoleucyl-L-allothreonyl-glycyl-L-allothreonyl-L-aserinate C^1.9-N^3.1-lactam trifluoroacetate”, the ring closure, crude yield in data set [4] is 86%.

Regarding `CC[C@H](C)[C@@H]1NC(=O)[C@@H](CCCNC(=N)N)NC(=O)[C@H](CC(C)C)NC(=O)[C@H]([C@H](O)C(C)C)NC(=O)[C@@H](NC(=O)[C@H](CC(C)(C)C)NC(=O)[C@H](N)CC(C)(C)C)[C@@H](c2ccccc2)NC(=O)C(CO)NC(=O)[C@H](CO)NC(=O)CNC(=O)[C@H](CO)NC1=O` (stereo partly drawn) [Example 23, [3-tert-Butyl-D-alanyl]-[3-tert-butyl-L-alanyl]-[(3R)-3-amino-L-phenylalanyl]-[(3R)-3-hydroxy-L-leucyl]-L-leucyl-D-arginyl-L-isoleucyl-L-seryl-glycyl-L-seryl-L-serine C^1.11-N^3.3-lactam bistrifluoroacetate] (H-[d(tBuAla)][tBuAla][Phe(βR-NH)][Leu(3R-OH)]L[dR]ISGS[ξS]; lactam 3-C), the “MIC S. aureus 133” value in data set [1] (133) was found to be 0.5 µg/mL (≈ 0.401 µM). In addition, in data set [2] (G9a), the “MIC S. pneumoniae G9a” value was determined as 0.25 µg/mL (≈ 0.201 µM). Besides, the “MIC E. faecalis ICB 27159” value in data set [3] (27159) is 1 µg/mL (≈ 0.802 µM).

For the compound `CCCC[C@@H]1NC(=O)[C@H]([C@H](O)C(C)C)NC(=O)[C@@H](NC(=O)[C@H](Cc2cccnc2)NC(=O)[C@H](N)C[Si](C)(C)C)[C@@H](c2ccccc2)NC(=O)C(CO)NC(=O)[C@H](C)NC(=O)CNC(=O)[C@H]([C@H](C)O)NC(=O)[C@H]([C@@H](C)CC)NC(=O)[C@@H](CCCNC(=N)N)NC1=O` (stereo partly drawn) [Example 41, [3-Trimethylsilyl-D-alanyl]-[3-(3-pyridyl)-L-alanyl]-[(3R)-3-amino-L-phenylalanyl]-[(3R)-3-hydroxy-L-leucyl]-L-norleucyl-D-arginyl-L-isoleucyl-L-allothreonyl-glycyl-L-alanyl-L-serine C^1.11-N^3.3-lactam tristrifluoroacetate] (H-[dAla(TMS)][3Pal][Phe(βR-NH)][Leu(3R-OH)][Nle][dR]I[aThr]GA[ξS]; lactam 3-C), the “MIC S. aureus 133” value in data set [1] (setting [7]) turned out to be 0.25 µg/mL (≈ 0.195 µM). In addition, the “MIC S. pneumoniae G9a” value in data set [2] (BHI broth with 10% bovine serum, 10^6 microbes per ml, 37° C., 18-24 hours, 10% CO2) amounted to 0.25 µg/mL (≈ 0.195 µM). Also, in data set [3] (setting [7]), the “MIC E. faecalis ICB 27159” value was 2 µg/mL (≈ 1.56 µM).

With `CC[C@H](C)[C@@H]1NC(=O)[C@@H](CCCNC(=N)N)NC(=O)[C@H](CC(C)C)NC(=O)[C@H]([C@H](O)C(C)C)NC(=O)[C@@H](NC(=O)[C@H](CC(C)C)NC(=O)[C@H](N)CC(C)C)[C@@H](c2ccccc2)OC(=O)[C@H](CO)NC(=O)[C@H]([C@H](O)C(N)=O)NC(=O)CNC(=O)[C@H]([C@H](C)O)NC1=O` [Lysobactin, lysobactin] (H-[dL]L[Phe(3R-OH)][Leu(3R-OH)]L[dR]I[aThr]G[Asn(3S-OH)]S; ester 3-C (inferred); N-terminus assumed), the “MIC S. aureus 133” value in data set [1] (133) stood at 0.5 µg/mL (≈ 0.392 µM). Also, the “MIC S. pneumoniae G9a” value in data set [2] (G9a) came out at 0.063 µg/mL (≈ 0.0494 µM). Also, the “MIC E. faecalis ICB 27159” value in data set [3] (27159) came out at 0.5 µg/mL (≈ 0.392 µM). Besides, the “hydrolysis (opening of the lactone) in aqueous medium” value in data set [5] is recorded as “hydrolyzed in an aqueous neutral to basic medium (pH>7) within days”.

In data set [6] (from Z-(3R)-3-amino-Phe-(3R)-3-hydroxy-Leu-Leu-dArg-Ile-alloThr-Gly-(3S)-3-hydroxy-Asn-Ser-OH, 1.27 mM, 0.0 °C), `CC[C@H](C)[C@@H]1NC(=O)[C@@H](CCCNC(=N)N)NC(=O)[C@H](CC(C)C)NC(=O)[C@H]([C@H](O)C(C)C)NC(=O)[C@@H](NC(=O)OCc2ccccc2)[C@@H](c2ccccc2)NC(=O)[C@H](CO)NC(=O)[C@H]([C@H](O)C(N)=O)NC(=O)CNC(=O)[C@H]([C@H](C)O)NC1=O` had a ring closure, yield after HPLC of 78.3%.

In data set [6] (from H-[N3-amine free, N2-Cbz-(3R)-3-amino-Phe(4-NMe2)]-[(3R)-3-OH-Leu]-Leu-dArg-Ile-aThr-Gly-[(3S)-3-OH-Asn]-Ser-OH, 9.3 mM), `CC[C@H](C)[C@@H]1NC(=O)[C@@H](CCCNC(=N)N)NC(=O)[C@H](CC(C)C)NC(=O)[C@H]([C@H](O)C(C)C)NC(=O)[C@@H](NC(=O)OCc2ccccc2)[C@@H](c2ccc(N(C)C)cc2)NC(=O)[C@H](CO)NC(=O)[C@H]([C@H](O)C(N)=O)NC(=O)CNC(=O)[C@H]([C@H](C)O)NC1=O` gave a ring closure, yield after HPLC of 52%.

On to `CC[C@H](C)[C@@H]1NC(=O)[C@@H](CCCNC(=N)N)NC(=O)[C@H](CC(C)C)NC(=O)[C@H]([C@H](O)C(C)C)NC(=O)[C@@H](NC(=O)[C@H](CC(C)C)NC(=O)[C@@H](CC(C)C)NC(=O)OCc2ccccc2)[C@@H](c2ccccc2)NC(=O)[C@H](CO)NC(=O)[C@H](CC(N)=O)NC(=O)CNC(=O)[C@H]([C@@H](C)O)NC1=O`, for which the ring closure, yield after HPLC in data set [6] (from Z-dLeu-Leu-(3R)3-amino-Phe(free 3-NH2)-(3R)3-OH-Leu-Leu-dArg-Ile-Thr-Gly-Asn-Ser-OH, 25.0 °C) was determined as 88.3%.

Take `CC[C@H](C)[C@@H]1NC(=O)[C@@H](CCCNC(=N)N)NC(=O)[C@H](CC(C)C)NC(=O)[C@H]([C@H](O)C(C)C)NC(=O)[C@@H](NC(=O)[C@H](CC(C)(C)C)NC(=O)[C@H](N)CC(C)(C)C)[C@@H](c2ccccc2)NC(=O)[C@H](CO)NC(=O)C(C)NC(=O)CNC(=O)[C@H]([C@H](C)O)NC1=O` (stereo partly drawn) [Example 13, [3-tert-Butyl-D-alanyl]-[3-tert-butyl-L-alanyl]-[(3R)-3-amino-L-phenylalanyl]-[(3R)-3-hydroxy-L-leucyl]-L-leucyl-D-arginyl-L-isoleucyl-L-allothreonyl-glycyl-L-alanyl-L-serine C^1.11-N^3.3-lactam bistrifluoroacetate] (H-[d(tBuAla)][tBuAla][Phe(βR-NH)][Leu(3R-OH)]L[dR]I[aThr]G[ξA]S; lactam 3-C): the “MIC S. aureus 133” value in data set [1] (133) was 0.25 µg/mL (≈ 0.201 µM). Moreover, in data set [2] (G9a), the “MIC S. pneumoniae G9a” value came to 0.5 µg/mL (≈ 0.402 µM). Also, the “MIC E. faecalis ICB 27159” value in data set [3] (27159) was found to be 0.5 µg/mL (≈ 0.402 µM).

With `CC[C@H](C)C1NC(=O)[C@H]([C@H](O)C(C)C)NC(=O)[C@@H](NC(=O)[C@H](CC(C)(C)C)NC(=O)[C@H](N)CC(C)(C)C)[C@@H](c2ccccc2)NC(=O)C(CO)NC(=O)[C@H](CO)NC(=O)CNC(=O)[C@H]([C@H](C)O)NC(=O)[C@H]([C@@H](C)CC)NC(=O)[C@@H](CCCNC(=N)N)NC1=O` (stereo partly drawn) [Example 35, [3-tert-Butyl-D-alanyl]-[3-tert-butyl-L-alanyl]-[(3R)-3-amino-L-phenylalanyl]-[(3R)-3-hydroxy-L-leucyl]-L-isoleucyl-D-arginyl-L-isoleucyl-L-allothreonyl-glycyl-L-seryl-L-serine C^1.11-N^3.3-lactam bistrifluoroacetate] (H-[d(tBuAla)][tBuAla][Phe(βR-NH)][Leu(3R-OH)][ξIle][dR]I[aThr]GS[ξS]; lactam 3-C), in data set [1] (133), the “MIC S. aureus 133” value was found to be 0.25 µg/mL (≈ 0.198 µM). Moreover, in data set [2] (G9a), the “MIC S. pneumoniae G9a” value came to 0.5 µg/mL (≈ 0.397 µM). In addition, the “MIC E. faecalis ICB 27159” value in data set [3] (27159) stood at 1 µg/mL (≈ 0.793 µM).
